Assay results taken from patent US8541373B2, “BChE albumin fusions for the treatment of cocaine abuse” (priority 2009, dated 2013).
“And” between values parts separate entries of the source, which are not always exact repeats. Equal entries are not always repeated.

Columns and labels:
cocaine = experiment: Plasma cocaine, ecgonine methyl ester and benzoylecgonine after IV cocaine post-AlbuBChE; type: in vivo, Squirrel monkeys; conditions: for Benzoylecgonine Plasma Concentration, Mean / Cocaine Plasma Concentration, Mean / Ecgonine methyl ester plasma concentration (mean): mean n=3
Procedure: Blood was placed into K2EDTA blood collection tubes with esterase inhibitor (diisopropylfluorophosphate (DFP). Tubes were inverted several times and placed on wet ice upon collection. Samples were centrifuged at 2-8° C. within 45 minutes of collection. The resultant plasma will be recovered and a single 200 μL aliquot of plasma was placed into polypropylene tubes. Plasma samples was frozen over dry ice and stored at approximately −70° C.
The bioanalytical method measured the plasma concentration of cocaine and two of its metabolites: ecgonine methyl ester and benzoylecgonine. Cocaine metabolic pathway is shown in FIG. 9, ecgonine methyl ester metabolite is formed directly from cocaine through the butrylcholine esterase enzyme. As such, this metabolite can be predicted to increase following AlbuBChE administration.
The blood level data were analyzed separately for each metabolite and time point (5 or 30 min). A one-way analysis-of-variance (ANOVA) was performed with follow-up Dunnett tests using the results of monkeys treated with vehicle as the control. The self-administration data were analyzed separately for response rate or injections following either vehicle treatment or AlbuBChE treatment. Control data were included in the analysis by taking the average of the last 3 days for the immediately preceding baseline condition. A within subjects ANOVA was then performed with follow-up tests contrasting days following vehicle or AlbuBChE with the control. For the reinstatement tests, a two-way ANOVA was performed for both response rate and injections, with time post vehicle or AlbuBChE as the within-subjects factor and pretreatment (vehicle or AlbuBChE) as the between subjects factor. Follow-up contrast compared vehicle and AlbuBChE at each time point.

[1] = Cardiovascular and respiratory safety pharmacology of AlbuBChE alone (telemetry); conditions: 15 mg/kg IM
Procedure: Prior to the start of the study, the monkeys were surgically instrumented with telemetry transmitters and vascular access ports. The following CV parameters were monitored: systolic pressure, diastolic pressure, mean arterial blood pressure, mean heart rate and mean rate-pressure product. Body temperatures changes were also monitored.
Study Group 1 (3 males and 3 females), served as a control group for testing the effect of AlbuBChE alone compared to its vehicle. Monkeys were administered (IM) with the control article AlbuBChE formulation buffer on Study Days (SDs) 1 and 4. Three hours post formulation buffer administration respiratory and cardiovascular (CV) parameters were recorded, respectively.
A single IM dose of the test article (AlbuBChE at 15 mg/kg) was administered on SD 8 and 11. Three hours after AlbuBChE dosing (corresponding to Tmax of AlbuBChE) CV and respiratory parameters were monitored, respectively.
The physiological responses to test article administration, including blood pressure, heart rate, body temperature, and the electrocardiograph (ECG), were monitored.

[2] = tested on: cocaine subjective effects; experiment: Clinical study: subjective effects of cocaine (visual analogue scale); type: in vivo, human; conditions: humans
Procedure: Subjective effects are measured using a computerized (21 CFR 11 validated) visual analogue scale (VAS). The time points for collection of subjective effects match with those for cocaine blood samples. The following set of VAS are: Drug Liking, Take Drug Again, Overall Drug Liking, High, Good Effects, Bad Effects, Feeling Rush, Desire for Cocaine, Feeling Anxious, Over-Stimulated, and Any Drug Effects.
PD sampling timepoints of VAS parameters after each cocaine dose are as follows: pre-dose, 2, 5, 10, 15, 30, 45, 60, 90, and 120 minutes post dose.

[3] = 5 min after cocaine 1 mg/kg IV given 2 hr post-AlbuBChE 5 mg/kg IM, individual monkeys 547, 3434, 53B
[4] = 5 min after cocaine 1 mg/kg IV given 72 hr post-AlbuBChE 5 mg/kg IM, individual monkeys
[5] = 5 min after cocaine 1 mg/kg IV given 96 hr post-AlbuBChE 5 mg/kg IM, individual monkeys
[6] = 5 min after cocaine 1 mg/kg IV, 2 hr post-AlbuBChE 5 mg/kg IM
[7] = 5 min after cocaine 1 mg/kg IV, 72 hr post-AlbuBChE 5 mg/kg IM
[8] = 5 min after cocaine 1 mg/kg IV, 96 hr post-AlbuBChE 5 mg/kg IM
[9] = 30 min after cocaine 1 mg/kg IV given 2 hr post-AlbuBChE 5 mg/kg IM, individual monkeys
[10] = 30 min after cocaine 1 mg/kg IV given 72 hr post-AlbuBChE 5 mg/kg IM, individual monkeys
[11] = 30 min after cocaine 1 mg/kg IV given 96 hr post-AlbuBChE 5 mg/kg IM, individual monkeys
[12] = 30 min after cocaine 1 mg/kg IV, 2 hr post-AlbuBChE 5 mg/kg IM
[13] = 30 min after cocaine 1 mg/kg IV, 72 hr post-AlbuBChE 5 mg/kg IM
[14] = 30 min after cocaine 1 mg/kg IV, 96 hr post-AlbuBChE 5 mg/kg IM

Substance: AlbuBChE
- Ecgonine methyl ester concentration increase over control (cocaine; 5 mg/kg IM, 2 hr post-AlbuBChE, 5 min after cocaine): ~40 fold
- Cocaine concentration relative to control (cocaine; 5 mg/kg IM, cocaine 1 mg/kg IV 96 hr post-AlbuBChE): 60 % of control
- Benzoylecgonine Plasma Concentration (cocaine; [3]): 4.83 ng/mL and 23.3 ng/mL and 20.1 ng/mL
- Cocaine Plasma Concentration (cocaine; [3]): 0.575 ng/mL and 20.0 ng/mL and 22.4 ng/mL
- Ecgonine Methyl Ester Plasma Concentration (cocaine; [3]): 109 ng/mL and 417 ng/mL and 333 ng/mL
- Benzoylecgonine Plasma Concentration (cocaine; [4]): 9.93 ng/mL and 41.7 ng/mL and 28.8 ng/mL
- Cocaine Plasma Concentration (cocaine; [4]): 41.3 ng/mL and 176 ng/mL and 104 ng/mL
- Ecgonine Methyl Ester Plasma Concentration (cocaine; [4]): 29.3 ng/mL and 101 ng/mL and 73.2 ng/mL
- Benzoylecgonine Plasma Concentration (cocaine; [5]): 15.5 ng/mL and 36.2 ng/mL and 26.3 ng/mL
- Cocaine Plasma Concentration (cocaine; [5]): 97.9 ng/mL and 191 ng/mL and 112 ng/mL
- Ecgonine Methyl Ester Plasma Concentration (cocaine; [5]): 40.5 ng/mL and 72.3 ng/mL and 35.8 ng/mL
- Benzoylecgonine Plasma Concentration, Mean (cocaine; [6]): 16.1 ng/mL
- Cocaine Plasma Concentration, Mean (cocaine; [6]): 14.3 ng/mL
- Ecgonine methyl ester plasma concentration (mean) (cocaine; [6]): 286 ng/mL
- Benzoylecgonine Plasma Concentration, Mean (cocaine; [7]): 26.8 ng/mL
- Cocaine Plasma Concentration, Mean (cocaine; [7]): 107 ng/mL
- Ecgonine methyl ester plasma concentration (mean) (cocaine; [7]): 67.8 ng/mL
- Benzoylecgonine Plasma Concentration, Mean (cocaine; [8]): 26.0 ng/mL
- Cocaine Plasma Concentration, Mean (cocaine; [8]): 134 ng/mL
- Ecgonine methyl ester plasma concentration (mean) (cocaine; [8]): 49.5 ng/mL
- Benzoylecgonine Plasma Concentration (cocaine; [9]): 11.1 ng/mL and 20.8 ng/mL and 10.9 ng/mL
- Cocaine Plasma Concentration (cocaine; [9]): 0.581 ng/mL and 0.115 ng/mL and 0.261 ng/mL
- Ecgonine Methyl Ester Plasma Concentration (cocaine; [9]): 252 ng/mL and 314 ng/mL and 218 ng/mL
- Benzoylecgonine Plasma Concentration (cocaine; [10]): 20.7 ng/mL and 33.4 ng/mL and 21 ng/mL
- Cocaine Plasma Concentration (cocaine; [10]): 65.0 ng/mL and 57.9 ng/mL and 44.9 ng/mL
- Ecgonine Methyl Ester Plasma Concentration (cocaine; [10]): 61.3 ng/mL and 112 ng/mL and 81.7 ng/mL
- Benzoylecgonine Plasma Concentration (cocaine; [11]): 18.9 ng/mL and 37.6 ng/mL and 21.5 ng/mL
- Cocaine Plasma Concentration (cocaine; [11]): 62.9 ng/mL and 75.6 ng/mL and 67.1 ng/mL
- Ecgonine Methyl Ester Plasma Concentration (cocaine; [11]): 25.7 ng/mL and 76.8 ng/mL and 45.2 ng/mL
- Benzoylecgonine Plasma Concentration, Mean (cocaine; [12]): 14.3 ng/mL
- Cocaine Plasma Concentration, Mean (cocaine; [12]): 0.319 ng/mL
- Ecgonine methyl ester plasma concentration (mean) (cocaine; [12]): 261 ng/mL
- Benzoylecgonine Plasma Concentration, Mean (cocaine; [13]): 25.0 ng/mL
- Cocaine Plasma Concentration, Mean (cocaine; [13]): 55.9 ng/mL
- Ecgonine methyl ester plasma concentration (mean) (cocaine; [13]): 85.0 ng/mL
- Benzoylecgonine Plasma Concentration, Mean (cocaine; [14]): 26.0 ng/mL
- Cocaine Plasma Concentration, Mean (cocaine; [14]): 68.5 ng/mL
- Ecgonine methyl ester plasma concentration (mean) (cocaine; [14]): 49.2 ng/mL
- Cocaine blood levels vs vehicle control (cocaine; 2 hours following AlbuBChE, 5- and 30-min time points): significantly reduced
- Blood levels of BZ vs vehicle control (cocaine; 2 hr following AlbuBChE): not significant
- Blood levels of EME vs vehicle control (cocaine; 2 hr following AlbuBChE, 5- and 30 min time point): elevated
- Cocaine blood levels vs vehicle control (cocaine; 72 hours following AlbuBChE, 30-min post cocaine): significantly below control levels
- Blood levels of EME vs vehicle control (cocaine; 72 hours following AlbuBChE, 30 min time point): significantly elevated
- Cocaine blood levels vs vehicle control (cocaine; 96 hours following AlbuBChE, 5 or 30 min time point): not significant
- Duration of decreased amount of cocaine in the blood (cocaine; Squirrel monkeys, 5 mg/kg): at least 72 hours
- Changes in recorded CV parameters and body temperature vs formulation buffer [1]: did not produce any significant changes
- Survival ([1]; with or without cocaine): All animals survived
- VAS Bad Effects ([2]; following cocaine exposure): reduces the feeling of “bad effects”
- Duration of decreased desire to use cocaine ([2]; single administration): up to one week
- VAS Any Drug Effects ([2]; vs placebo): reduces the reporting of “any drug effects.”
- VAS Desire for Cocaine ([2]; vs placebo): decreases the desire for cocaine
- VAS Drug Liking ([2]; vs placebo): decreases cocaine liking
- VAS Feeling Anxious ([2]; vs placebo): reduces feelings of anxiousness
- VAS Feeling Rush ([2]; vs placebo): decreases subjective feeling of “rush”
- VAS Good Effects ([2]; vs placebo): decreases the subjective feeling of “good effects”
- VAS High ([2]; vs placebo): decreases the “high”
- VAS Over-Stimulated ([2]; vs placebo): reduces feelings of being over-stimulated
- VAS Overall Drug Liking ([2]; vs placebo): decreases overall drug liking
- VAS Take Drug Again ([2]; vs placebo): decreases the desire to take cocaine again
